Experimental data taken from patent US8247211B2, “Glycopeptide antibiotics” (American Cyanamid Company, priority 2001, dated 2012).
In brackets after ≈: the same amount, converted by molar mass.

Tests used:
Assay in all cases: In vitro antibacterial evaluation: minimum inhibitory concentration (MIC), broth dilution method
Assay type in all cases: cell-based
[1] = tested on: Enterococcus sp.
In short: (§1)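 NCCLS M7-A2 broth dilution; Muller-Hinton II […]; 5×10^5 CFU/mL; 64-0.06 μg/mL. MIC = lowest concentration with no growth.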

[2] = tested on: Escherichia coli
In short: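 Broth dilution per NCCLS M7-A2 in Muller-Hinton II […], inoculum 5×10^5 CFU/mL, antibiotic tested over 64-0.06 μg/mL. MIC is taken as the lowest concentration that inhibits growth. Panel includes recent clinical isolates resistant to methicillin, penicillin and/or vancomycin.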

[3] = tested on: Staphylococcus sp.; conditions: 18 hours at 35° C.
In short: as §1

[4] = tested on: Escherichia coli; remark: listed apart in the source

Row | SMILES | MIC Enterococcus avium (GC 4558) [1] [µg/mL] | MIC Enterococcus faecalis (ATCC 29212) [1] [µg/mL] | MIC Enterococcus faecalis (GC 4553) [1] [µg/mL] | MIC Enterococcus faecalis (GC 4554) [1] [µg/mL] | MIC Enterococcus faecium (GC 2243) [1] [µg/mL] | MIC Enterococcus faecium (GC 4556) [1] [µg/mL] | MIC Enterococcus faecium (GC 4557) [1] [µg/mL] | MIC Escherichia coli (GC 4559) [2] [µg/mL] | MIC Escherichia coli (GC 4560) [2] [µg/mL] | MIC Coagulase Negative Staphylococcus (GC 4547) [3] [µg/mL] | MIC Coagulase Negative Staphylococcus (GC 4547) ([3]; broth dilution) [µg/mL] | MIC Coagulase Negative Staphylococcus (GC 4548) [3] [µg/mL] | MIC Coagulase Negative Staphylococcus (GC 4548) ([3]; broth dilution) [µg/mL] | MIC Coagulase Negative Staphylococcus (GC 4549) [3] [µg/mL] | MIC Coagulase Negative Staphylococcus (GC 4549) ([3]; broth dilution) [µg/mL] | MIC Coagulase Negative Staphylococcus (GC 4551) [3] [µg/mL] | MIC Coagulase Negative Staphylococcus (GC 4551) ([3]; broth dilution) [µg/mL] | MIC Staphylococcus aureus (ATCC 29213) [3] [µg/mL] | MIC Staphylococcus aureus (ATCC 29213) ([3]; broth dilution) [µg/mL] | MIC Staphylococcus aureus (GC 1131) [3] [µg/mL] | also measured
1 | CC(C)CCC(=O)OC1C(OC2C(CO)OC(Oc3ccc(CC4NC(=O)C(C(C)c5ccccc5)NC(=O)CNC(=O)C(CO)NC(=O)C(C(O)C5CNC(=N)N5C5OC(CO)C(O)C(O)C5O)NC(=O)C(C(O)C5CNC(=N)N5)NC4=O)cc3)C(O)C2O)OC(CO)C(O)C1O (stereo not drawn) [Example 270a, Cyclo[glycyl-β-methylphenylalanyl-O-[4-O-[2-O-(4-methylpentanoyl)hexopyranosyl]-hexopyranosyl]tyrosyl-3-(2-iminoimidazolidin-4-yl)seryl-3-(3-hexopyranosyl-2-iminoimidazolidin-4-yl)serylseryl]] | 16 (≈ 11.5 µM) | 16 (≈ 11.5 µM) | 16 (≈ 11.5 µM) | 32 (≈ 23 µM) | 16 (≈ 11.5 µM) | 16 (≈ 11.5 µM) | 4 (≈ 2.87 µM) | >64 | 2 (≈ 1.44 µM) | 2 (≈ 1.44 µM) | 2 (≈ 1.44 µM) | 2 (≈ 1.44 µM) | 2 (≈ 1.44 µM) | 2 (≈ 1.44 µM) | 2 (≈ 1.44 µM) | 4 (≈ 2.87 µM) | 4 (≈ 2.87 µM) | 4 (≈ 2.87 µM) | 4 (≈ 2.87 µM) | 4 (≈ 2.87 µM) | MIC Staphylococcus aureus (GC 1131) ([3]; broth dilution): 4 µg/mL (≈ 2.87 µM); MIC Staphylococcus aureus (GC 4541) [3]: 4 µg/mL (≈ 2.87 µM); MIC Staphylococcus aureus (GC 4541) ([3]; broth dilution): 4 µg/mL (≈ 2.87 µM); MIC Staphylococcus aureus (GC 4542) [3]: 4 µg/mL (≈ 2.87 µM); MIC Staphylococcus aureus (GC 4542) ([3]; broth dilution): 4 µg/mL (≈ 2.87 µM); MIC Staphylococcus aureus (GC 4544) [3]: 4 µg/mL (≈ 2.87 µM); MIC Staphylococcus aureus (GC 4544) ([3]; broth dilution): 4 µg/mL (≈ 2.87 µM); MIC Staphylococcus aureus (GC 4545) [3]: 4 µg/mL (≈ 2.87 µM); MIC Staphylococcus aureus (GC 4545) ([3]; broth dilution): 4 µg/mL (≈ 2.87 µM); MIC Staphylococcus aureus-SMITH (GC 4543) [3]: 4 µg/mL (≈ 2.87 µM); MIC Staphylococcus aureus-SMITH (GC 4543) ([3]; broth dilution): 4 µg/mL (≈ 2.87 µM); MIC Staphylococcus haemolyticus (GC 4546) [3]: 2 µg/mL (≈ 1.44 µM); MIC Staphylococcus haemolyticus (GC 4546) ([3]; broth dilution): 2 µg/mL (≈ 1.44 µM); MIC Escherichia coli (ATCC 25922) [4]: >64 µg/mL
2 | CC(=O)OCC1OC(OC2C(CO)OC(Oc3ccc(CC4NC(=O)C(C(C)c5ccccc5)NC(=O)CNC(=O)C(CO)NC(=O)C(C(O)C5CNC(=N)N5C5OC(CO)C(O)C(O)C5O)NC(=O)C(C(O)C5CNC(=N)N5)NC4=O)cc3)C(O)C2O)C(O)C(OC(=O)CCC(C)C)C1O (stereo not drawn) [Example 270b, Cyclo[glycyl-β-methylphenylalanyl-O-[4-O-[6-O-acetyl-3-O-(4-methylpentanoyl)hexopyranosyl]hexopyranosyl]tyrosyl-3-(2-iminoimidazolidin-4-yl)seryl-3-(3-hexopyranosyl-2-iminoimidazolidin-4-yl)serylseryl]] | 32 (≈ 22.3 µM) | 32 (≈ 22.3 µM) | 32 (≈ 22.3 µM) | 32 (≈ 22.3 µM) | 32 (≈ 22.3 µM) | 32 (≈ 22.3 µM) | 8 (≈ 5.57 µM) | >64 | 4 (≈ 2.79 µM) | 4 (≈ 2.79 µM) | 4 (≈ 2.79 µM) | 4 (≈ 2.79 µM) | 4 (≈ 2.79 µM) | 4 (≈ 2.79 µM) | 4 (≈ 2.79 µM) | 4 (≈ 2.79 µM) | 4 (≈ 2.79 µM) | 8 (≈ 5.57 µM) | 8 (≈ 5.57 µM) | 8 (≈ 5.57 µM) | MIC Staphylococcus aureus (GC 1131) ([3]; broth dilution): 8 µg/mL (≈ 5.57 µM); MIC Staphylococcus aureus (GC 4541) [3]: 8 µg/mL (≈ 5.57 µM); MIC Staphylococcus aureus (GC 4541) ([3]; broth dilution): 8 µg/mL (≈ 5.57 µM); MIC Staphylococcus aureus (GC 4542) [3]: 8 µg/mL (≈ 5.57 µM); MIC Staphylococcus aureus (GC 4542) ([3]; broth dilution): 8 µg/mL (≈ 5.57 µM); MIC Staphylococcus aureus (GC 4544) [3]: 8 µg/mL (≈ 5.57 µM); MIC Staphylococcus aureus (GC 4544) ([3]; broth dilution): 8 µg/mL (≈ 5.57 µM); MIC Staphylococcus aureus (GC 4545) [3]: 4 µg/mL (≈ 2.79 µM); MIC Staphylococcus aureus (GC 4545) ([3]; broth dilution): 4 µg/mL (≈ 2.79 µM); MIC Staphylococcus aureus-SMITH (GC 4543) [3]: 4 µg/mL (≈ 2.79 µM); MIC Staphylococcus aureus-SMITH (GC 4543) ([3]; broth dilution): 4 µg/mL (≈ 2.79 µM); MIC Staphylococcus haemolyticus (GC 4546) [3]: 4 µg/mL (≈ 2.79 µM); MIC Staphylococcus haemolyticus (GC 4546) ([3]; broth dilution): 4 µg/mL (≈ 2.79 µM); MIC Escherichia coli (ATCC 25922) [4]: >64 µg/mL
